# Data taken from ChEMBL document CHEMBL5291721, “A preclinical secondary pharmacology resource illuminates target-adverse drug reaction associations of marketed drugs” (Nat Commun, 2023).
# Assays:
# [1] = target: T1, Alpha-2B adrenergic receptor (Homo sapiens, UniProt P18089)
# T1 sequence (P18089 whole entry): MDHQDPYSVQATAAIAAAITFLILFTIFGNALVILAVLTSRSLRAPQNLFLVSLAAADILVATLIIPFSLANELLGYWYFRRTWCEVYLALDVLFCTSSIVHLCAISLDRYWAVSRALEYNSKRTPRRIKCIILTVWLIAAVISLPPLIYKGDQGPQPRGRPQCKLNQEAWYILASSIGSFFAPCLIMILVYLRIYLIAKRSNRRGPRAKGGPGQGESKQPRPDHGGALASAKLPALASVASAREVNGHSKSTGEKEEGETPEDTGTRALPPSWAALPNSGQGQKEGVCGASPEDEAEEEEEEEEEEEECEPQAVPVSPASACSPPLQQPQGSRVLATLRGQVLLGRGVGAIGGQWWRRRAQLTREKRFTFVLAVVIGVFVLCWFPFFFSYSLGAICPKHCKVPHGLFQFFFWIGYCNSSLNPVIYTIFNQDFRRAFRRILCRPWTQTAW
# [2] = target: T2, Glucocorticoid receptor (Homo sapiens, UniProt P04150); assay type: functional
# T2 sequence (P04150 whole entry): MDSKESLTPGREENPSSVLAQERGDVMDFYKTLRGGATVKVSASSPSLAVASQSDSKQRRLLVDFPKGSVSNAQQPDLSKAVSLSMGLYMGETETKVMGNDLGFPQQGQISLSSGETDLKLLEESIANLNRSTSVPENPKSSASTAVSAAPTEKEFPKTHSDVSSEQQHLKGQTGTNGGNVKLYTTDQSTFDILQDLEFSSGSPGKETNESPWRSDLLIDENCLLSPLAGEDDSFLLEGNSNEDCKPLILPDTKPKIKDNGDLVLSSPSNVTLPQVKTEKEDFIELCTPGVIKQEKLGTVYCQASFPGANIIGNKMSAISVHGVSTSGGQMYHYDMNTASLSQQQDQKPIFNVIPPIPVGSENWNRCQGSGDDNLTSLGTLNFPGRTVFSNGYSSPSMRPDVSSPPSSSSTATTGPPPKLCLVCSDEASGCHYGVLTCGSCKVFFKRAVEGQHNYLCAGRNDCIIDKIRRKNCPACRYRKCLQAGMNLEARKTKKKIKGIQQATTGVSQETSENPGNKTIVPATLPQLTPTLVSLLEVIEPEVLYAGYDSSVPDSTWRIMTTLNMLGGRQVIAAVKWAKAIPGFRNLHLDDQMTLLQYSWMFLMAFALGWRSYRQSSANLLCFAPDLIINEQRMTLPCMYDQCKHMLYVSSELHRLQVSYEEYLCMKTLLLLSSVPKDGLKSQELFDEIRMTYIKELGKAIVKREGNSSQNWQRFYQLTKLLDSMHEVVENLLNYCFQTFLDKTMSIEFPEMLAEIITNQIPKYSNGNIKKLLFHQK
# [3] = target: T3, Peroxisome proliferator-activated receptor gamma (Homo sapiens, UniProt P37231); assay type: functional
# T3 sequence (P37231 whole entry): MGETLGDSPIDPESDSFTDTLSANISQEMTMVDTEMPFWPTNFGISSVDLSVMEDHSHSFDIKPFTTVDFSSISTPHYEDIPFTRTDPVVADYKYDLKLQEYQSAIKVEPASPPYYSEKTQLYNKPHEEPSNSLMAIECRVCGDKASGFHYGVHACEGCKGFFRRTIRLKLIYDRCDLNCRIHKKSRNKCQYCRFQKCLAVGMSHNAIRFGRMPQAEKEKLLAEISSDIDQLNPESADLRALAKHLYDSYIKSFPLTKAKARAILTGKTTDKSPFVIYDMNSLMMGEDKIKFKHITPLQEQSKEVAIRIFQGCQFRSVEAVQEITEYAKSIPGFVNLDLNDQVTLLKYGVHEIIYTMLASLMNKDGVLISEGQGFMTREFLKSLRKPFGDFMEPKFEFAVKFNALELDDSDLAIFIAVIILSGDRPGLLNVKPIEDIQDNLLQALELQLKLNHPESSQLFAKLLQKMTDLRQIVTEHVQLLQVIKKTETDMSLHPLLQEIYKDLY
# [4] = target: T4, 5-hydroxytryptamine receptor 1A (Homo sapiens, UniProt P08908)
# T4 sequence (P08908 whole entry): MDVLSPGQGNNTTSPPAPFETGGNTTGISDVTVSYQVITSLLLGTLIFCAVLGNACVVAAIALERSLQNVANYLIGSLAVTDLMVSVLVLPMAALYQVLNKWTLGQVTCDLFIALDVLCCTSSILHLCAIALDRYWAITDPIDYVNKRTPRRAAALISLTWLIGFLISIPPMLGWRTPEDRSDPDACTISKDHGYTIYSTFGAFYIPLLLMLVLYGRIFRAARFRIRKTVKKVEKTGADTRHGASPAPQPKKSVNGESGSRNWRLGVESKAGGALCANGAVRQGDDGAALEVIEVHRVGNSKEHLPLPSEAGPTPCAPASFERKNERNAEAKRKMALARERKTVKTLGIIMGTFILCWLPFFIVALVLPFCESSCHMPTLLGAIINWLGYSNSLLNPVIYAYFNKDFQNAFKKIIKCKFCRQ
# [5] = target: Glucagon receptor (Homo sapiens, UniProt P47871)
# [6] = target: T5, B1 bradykinin receptor (Homo sapiens, UniProt P46663)
# T5 sequence (P46663 whole entry): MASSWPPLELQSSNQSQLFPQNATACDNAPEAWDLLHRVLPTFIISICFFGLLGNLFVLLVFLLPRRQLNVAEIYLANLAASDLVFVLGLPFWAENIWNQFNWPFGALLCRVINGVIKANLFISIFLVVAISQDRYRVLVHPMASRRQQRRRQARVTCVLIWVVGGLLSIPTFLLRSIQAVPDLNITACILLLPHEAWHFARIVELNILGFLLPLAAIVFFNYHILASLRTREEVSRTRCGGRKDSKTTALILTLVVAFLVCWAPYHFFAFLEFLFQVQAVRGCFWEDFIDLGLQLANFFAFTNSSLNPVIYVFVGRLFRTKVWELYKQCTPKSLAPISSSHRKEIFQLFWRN
# [7] = target: D(1A) dopamine receptor (Homo sapiens, UniProt P21728)
# Further: assay procedure not described here.
# D(1A) dopamine receptor, sequence (P21728 whole entry): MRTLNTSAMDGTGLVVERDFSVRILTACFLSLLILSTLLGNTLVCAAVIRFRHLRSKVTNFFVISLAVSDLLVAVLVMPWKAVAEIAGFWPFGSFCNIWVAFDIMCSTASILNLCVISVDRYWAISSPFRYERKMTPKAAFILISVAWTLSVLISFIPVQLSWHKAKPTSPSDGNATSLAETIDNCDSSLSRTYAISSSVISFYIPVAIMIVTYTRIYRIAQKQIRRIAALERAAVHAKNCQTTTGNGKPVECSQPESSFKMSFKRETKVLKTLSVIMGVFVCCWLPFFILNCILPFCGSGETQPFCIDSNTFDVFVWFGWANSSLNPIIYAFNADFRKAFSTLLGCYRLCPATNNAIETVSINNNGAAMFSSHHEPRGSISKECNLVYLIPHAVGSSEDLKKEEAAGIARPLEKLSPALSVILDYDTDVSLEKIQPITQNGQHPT
# Glucagon receptor, sequence (P47871 whole entry): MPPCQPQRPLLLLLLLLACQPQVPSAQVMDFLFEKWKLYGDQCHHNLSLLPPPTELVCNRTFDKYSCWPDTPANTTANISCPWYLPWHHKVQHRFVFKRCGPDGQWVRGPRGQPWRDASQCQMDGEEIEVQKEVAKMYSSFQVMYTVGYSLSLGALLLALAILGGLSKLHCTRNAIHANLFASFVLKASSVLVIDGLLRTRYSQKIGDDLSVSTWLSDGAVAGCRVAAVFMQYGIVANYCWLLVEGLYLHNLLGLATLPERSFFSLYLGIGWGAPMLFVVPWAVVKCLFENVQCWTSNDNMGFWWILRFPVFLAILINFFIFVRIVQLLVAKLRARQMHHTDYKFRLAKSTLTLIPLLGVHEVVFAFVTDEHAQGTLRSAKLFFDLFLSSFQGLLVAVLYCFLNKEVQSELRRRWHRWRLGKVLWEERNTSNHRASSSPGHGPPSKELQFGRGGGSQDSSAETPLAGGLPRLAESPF
SMILES,AC50 [1],AC50 [2],AC50 [3],AC50 [4],AC50 [5],AC50 [6],AC50 [7]
CC(=N)N1CC[C@H](SC2=C(C(=O)O)N3C(=O)[C@H]([C@@H](C)O)[C@H]3C2)C1,300 µM,> 300 µM,> 300 µM,,,,
CC1(C)S[C@@H]2[C@H](NC(=O)[C@H](N)c3ccc(O)cc3)C(=O)N2[C@H]1C(=O)O [AMOXICILLIN],,,,> 10 µM,> 30 µM,> 30 µM,> 10 µM
O=C1CN2Cc3c(ccc(Cl)c3Cl)N=C2N1 [ANAGRELIDE],> 10 µM,,,> 10 µM,,,
CNCC[C@@H](Oc1ccccc1C)c1ccccc1 [ATOMOXETINE],23 µM,,,,,,
CCc1oc2ccccc2c1C(=O)c1cc(Br)c(O)c(Br)c1 [BENZBROMARONE],,> 30 µM,,> 10 µM,,,
C=C(C)[C@@H]1CCC(C)=C[C@H]1c1c(O)cc(CCCCC)cc1O [CANNABIDIOL],> 30 µM,> 30 µM,,,,,
CO/N=C(\C(=O)N[C@@H]1C(=O)N2C(C(=O)O)=C(COC(N)=O)CS[C@H]12)c1ccco1 [CEFUROXIME],> 30 µM,,> 30 µM,,,,
[H]/N=C(\N/C(=N/[H])NCCCCCCNC(=N)NC(=N)Nc1ccc(Cl)cc1)Nc1ccc(Cl)cc1 [CHLORHEXIDINE],2.4 µM,,,,,,
Clc1cccc(Cl)c1N=C1NCCN1 [CLONIDINE],,,,> 10 µM,> 30 µM,> 30 µM,> 10 µM
COC(=O)[C@H](c1ccccc1Cl)N1CCc2sccc2C1 [CLOPIDOGREL],,> 30 µM,> 30 µM,> 10 µM,> 30 µM,> 30 µM,> 10 µM
CN1C[C@H](C(=O)N[C@]2(C)O[C@@]3(O)[C@@H]4CCCN4C(=O)[C@H](Cc4ccccc4)N3C2=O)C[C@@H]2c3cccc4[nH]cc(c34)C[C@H]21 [DIHYDROERGOTAMINE],,,,0.0126 µM,> 30 µM,> 30 µM,5.47 µM
CNCC[C@H](Oc1cccc2ccccc12)c1cccs1 [DULOXETINE],3.9 µM,,,,,,
C#Cc1cccc(Nc2ncnc3cc(OCCOC)c(OCCOC)cc23)c1 [ERLOTINIB],> 30 µM,> 30 µM,> 30 µM,,,,
CC1(C)O[C@@H]2C[C@H]3[C@@H]4C[C@H](F)C5=CC(=O)C=C[C@]5(C)[C@H]4[C@@H](O)C[C@]3(C)[C@]2(C(=O)CO)O1 [FLUNISOLIDE],,> 30 µM,> 30 µM,,,,
CCC(=O)O[C@@H](O[P@](=O)(CCCCc1ccccc1)CC(=O)N1C[C@H](C2CCCCC2)C[C@H]1C(=O)O)C(C)C [FOSINOPRIL],> 30 µM,,,,,,
C[C@H]1Oc2cc(cnc2N)-c2c(nn(C)c2C#N)CN(C)C(=O)c2ccc(F)cc21 [LORLATINIB],> 30 µM,> 30 µM,> 30 µM,,,,
Cc1cnc(NC(=O)C2=C(O)c3ccccc3S(=O)(=O)N2C)s1 [MELOXICAM],,,,> 10 µM,> 30 µM,> 30 µM,> 10 µM
CC(=O)/N=c1/sc(S(N)(=O)=O)nn1C [METHAZOLAMIDE],> 10 µM,,,,,,

SMILES,AC50 [1],AC50 [2],AC50 [3],AC50 [4],AC50 [5],AC50 [6],AC50 [7]
CC(=O)Oc1ccccc1C(=O)Nc1ncc([N+](=O)[O-])s1 [NITAZOXANIDE],8 µM,,,,,,
CNCCC=C1c2ccccc2CCc2ccccc21 [NORTRIPTYLINE],,,,,,,0.386 µM
CN(C)c1cc(CNCC(C)(C)C)c(O)c2c1C[C@H]1C[C@H]3[C@H](N(C)C)C(O)=C(C(N)=O)C(=O)[C@@]3(O)C(O)=C1C2=O [OMADACYCLINE],30 µM,,> 30 µM,,,,
COc1ccnc(C[S+]([O-])c2nc3ccc(OC(F)F)cc3[nH]2)c1OC (stereo not given) [PANTOPRAZOLE],,,,> 10 µM,> 30 µM,> 30 µM,> 10 µM
CNC[C@H](O)c1cccc(O)c1 [PHENYLEPHRINE],,,,> 10 µM,> 30 µM,> 30 µM,> 10 µM
O=C1NC(=O)C(c2ccccc2)(c2ccccc2)N1 [PHENYTOIN],,> 30 µM,> 30 µM,> 10 µM,> 30 µM,> 30 µM,
CC(C)C[C@H](CN)CC(=O)O [PREGABALIN],> 30 µM,> 30 µM,> 30 µM,> 10 µM,> 30 µM,> 30 µM,
CNC(=O)c1cc(Oc2ccc(NC(=O)Nc3ccc(Cl)c(C(F)(F)F)c3)c(F)c2)ccn1 [REGORAFENIB],,17 µM,,,,,
CCOc1cc(CC(=O)N[C@@H](CC(C)C)c2ccccc2N2CCCCC2)ccc1C(=O)O [REPAGLINIDE],> 30 µM,> 30 µM,> 30 µM,,,,
O=C(Nc1c(Cl)cncc1Cl)c1ccc(OC(F)F)c(OCC2CC2)c1 [ROFLUMILAST],> 30 µM,,,,,,
CCCN(CCc1cccs1)[C@H]1CCc2c(O)cccc2C1 [ROTIGOTINE],0.13 µM,> 30 µM,> 30 µM,,,,
CC[C@H]1OC(=O)[C@H](C)[C@@H](O[C@H]2C[C@@](C)(OC)[C@@H](O)[C@H](C)O2)[C@H](C)[C@@H](O[C@@H]2O[C@H](C)C[C@H](N(C)C)[C@H]2O)[C@](C)(O)C[C@@H](C)/C(=N\OCOCCOC)[C@H](C)[C@@H](O)[C@]1(C)O [ROXITHROMYCIN],,> 30 µM,> 30 µM,,,,
CC(C)N(CCCCOCC(=O)NS(C)(=O)=O)c1cnc(-c2ccccc2)c(-c2ccccc2)n1 [SELEXIPAG],> 30 µM,,,,,,
CCCCNc1ccc(C(=O)OCCN(C)C)cc1 [TETRACAINE],,,,> 10 µM,> 30 µM,> 30 µM,> 10 µM
Cn1c(=O)c2[nH]cnc2n(C)c1=O [THEOPHYLLINE],,,,> 10 µM,> 30 µM,> 30 µM,> 10 µM
CN1CCN(CCCN2c3ccccc3Sc3ccc(S(=O)(=O)N(C)C)cc32)CC1 [THIOPROPERAZINE],0.15 µM,,,,,,
CC1(C)O[C@@H]2[C@@H](CO[C@@]3(COS(N)(=O)=O)OC(C)(C)O[C@@H]23)O1 [TOPIRAMATE],> 10 µM,,,> 10 µM,> 30 µM,> 30 µM,> 10 µM
Cc1cc(CC(=O)O)n(C)c1C(=O)c1ccc(Cl)cc1 [ZOMEPIRAC],> 30 µM,,,,,,
